Assay results as given in US9045501B2, “5-HT3 receptor modulators, methods of making, and use thereof” (Albany Molecular Research, Inc., priority 2009, dated 2015).

What was measured:
5-HT3 receptors = 5-HT3 receptors (Mus musculus (Mouse), UniProt P23979); test: von Bezold-Jarisch model in vivo: inhibition of 5-HT induced bradycardia; settings: 3 mg/kg oral, 60 min before 5-HT 0.1 mg/kg IV, anesthetized male ICR mice; highest oral dose tested
Procedure: This is a well characterized and widely used model to assess 5-HT3 receptor function in vivo (King et al., 5-Hydroxtryptamine-3 Receptor Antagonists, CRC Press, pp. 74-75 (1993), which is hereby incorporated by reference in its entirety). Certain compounds (Table 1) were evaluated for their ability to inhibit serotonin induced bradycardia in vivo in the mouse (Saxena et al., Arch. Int. Pharmacodyn., 277:235-252 (1985), which is hereby incorporated by reference in its entirety). Test substances and vehicle [2% Tween 80] were each administered orally to a group of 5 male ICR mice each weighing 24±2 g. A dosing volume of 10 mL/kg was used. Sixty minutes later, 5-HT (0.1 mg/kg IV)-induced bradycardia was recorded in urethane (2250 mg/kg IP, given 10 minutes before 5-HT)-anesthetized animals.

h5-HT3A receptor = h5-HT3A receptor (Homo sapiens (Human), UniProt P46098); test: Agonist activity at recombinant human 5-HT3A receptors, [Ca2+]i in HEK293 cells; assay type: cell-based; settings: at 1 μM, normalized to the response of 5-HT (5-HT response = 100% at 3 μM); NR = no response
Chain of h5-HT3A receptor (P46098 24-478): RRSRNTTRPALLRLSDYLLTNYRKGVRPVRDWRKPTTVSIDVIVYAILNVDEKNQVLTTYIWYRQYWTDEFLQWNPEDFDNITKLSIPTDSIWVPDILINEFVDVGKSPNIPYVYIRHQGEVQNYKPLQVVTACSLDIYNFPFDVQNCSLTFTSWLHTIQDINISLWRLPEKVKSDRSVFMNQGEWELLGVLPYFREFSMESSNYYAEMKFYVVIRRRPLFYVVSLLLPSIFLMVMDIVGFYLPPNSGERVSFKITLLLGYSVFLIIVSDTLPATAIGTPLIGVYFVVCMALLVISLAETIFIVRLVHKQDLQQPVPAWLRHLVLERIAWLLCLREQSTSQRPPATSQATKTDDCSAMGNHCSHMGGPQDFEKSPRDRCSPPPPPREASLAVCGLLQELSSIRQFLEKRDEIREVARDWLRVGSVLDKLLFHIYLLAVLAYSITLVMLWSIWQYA
Procedure: Human embryonic kidney (HEK293) cells expressing the h5-HT3A receptor subunit were seeded directly into poly-D-lysine coated, black-walled, clear bottomed, 96 well plates with approximately 1×10^5 cells per well. After 48 hrs incubation in DMEM growth media (100 μL), cells were washed twice (each 200 μL) in Hank's balanced salt solution (Invitrogen) before incubation (1 hr) with Fluo-4 acetoxymethyl (AM) ester (100 μL, 2.5 μM; Molecular Probes). Cells were washed twice (each 200 μL) in Hank's balanced salt solution and incubated for a further 30 min in Hank's balanced salt solution (100 μL) prior to assay (25° C.). Alteration in [Ca^2+]i was measured (relative fluorescence units [RFU]) using a Flexstation (excitation 488 nm and emission 515 nm; frequency of recording 3 sec). After recording for at least 80 sec, vehicle (Hank's balanced salt solution) or drug was automatically administered to the well (50 μL). Baseline was calculated from the 5 data points immediately prior to the first drug administration and the maximum response was that achieved over the 240 sec following drug administration. In all experiments the muscarinic receptor agonist carbachol (1 mM) was added 240 sec after the test drug administration.

human 5-HT3 receptor = human 5-HT3 receptor (Homo sapiens (Human), UniProt P46098); test: Radioligand binding assay (SPA format), affinity for the human 5-HT3 receptor; settings: [9-methyl-3H]BRL-43694 10 nM, human 5-HT3 receptor membranes, Cheng Prusoff; read-out: h5-HT3A Ki
Chain of human 5-HT3 receptor (P46098 24-478): as above
Procedure: The relative affinity of the various compounds for the human 5-HT3 receptor was measured in a radioligand binding assay, using a scintillation proximity assay (SPA) format. Test compounds were dissolved to 10 mM in 100% DMSO, then serially diluted at 10× assay concentrations in 100% DMSO in 96-well polypropylene plates and further diluted to 4× assay concentrations with the assay buffer. Samples were incubated in 50 mM Tris-HCl, pH 7.5, 3 mM MgCl2, 1 mM EDTA and 10% DMSO with 10 nM [9-methyl-^3H]BRL-43694 (Perkin Elmer), 3 μg of human 5-HT3 receptor membranes (Perkin Elmer) and 0.5 mg/mL SPA beads (WGA PVT, Amersham Biosciences) in a final volume of 0.2 mL. Binding reactions were set up in wells of PicoPlates-96 (Perkin Elmer) by adding consecutively 50 μL of each competing compound or buffer, SPA beads, the radioligand and 5-HT3 receptor membranes. After an overnight incubation at room temperature on a Nutator mixer, plates were centrifuged for 15 min at 1,500 rpm, followed by incubation in the dark for 30 min. Radioactivity was counted in the TopCount microplate counter (Perkin Elmer) for 5 min. Total binding control contained compound dilution buffer only; nonspecific binding was determined in the presence of 30 μM MDL-72222. Specific binding was determined by subtracting nonspecific binding from total binding. All experiments were performed in duplicate using ten concentrations of competing ligand, with ondansetron included as a control in every run. IC50 values were determined from specific binding data using XLfit4.1 curve fitting software from IDBS Ltd. The inhibition constant (Ki) was calculated from the Cheng Prusoff equation: (Ki=IC50/(1+(L/KD)), where L=concentration of radioligand in the assay, and KD=affinity of the radioligand for the receptor.

Chain of 5-HT3 receptors (P23979 24-489): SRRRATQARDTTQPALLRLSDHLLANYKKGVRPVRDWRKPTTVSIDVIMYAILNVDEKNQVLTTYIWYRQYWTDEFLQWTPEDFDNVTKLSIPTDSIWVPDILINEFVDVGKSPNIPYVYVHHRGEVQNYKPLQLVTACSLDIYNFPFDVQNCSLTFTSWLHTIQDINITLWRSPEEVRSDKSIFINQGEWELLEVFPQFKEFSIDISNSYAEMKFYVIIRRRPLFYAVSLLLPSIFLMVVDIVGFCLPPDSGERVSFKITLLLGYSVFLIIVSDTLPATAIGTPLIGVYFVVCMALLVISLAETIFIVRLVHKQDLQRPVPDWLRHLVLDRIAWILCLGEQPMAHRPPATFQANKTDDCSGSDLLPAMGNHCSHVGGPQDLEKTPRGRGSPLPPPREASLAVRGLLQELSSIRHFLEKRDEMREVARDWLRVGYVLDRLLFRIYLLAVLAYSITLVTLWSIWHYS

SMILES | Inhibition of 5-HT Induced Bradycardia in Mice (5-HT3 receptors) | HEK293 h5-HT3A % agonist response (h5-HT3A receptor) | Ki (human 5-HT3 receptor)
O=C1c2cccc3cnn(c23)CCN1[C@@H]1CN2CCC1CC2 [Example 7, (S)-7-(quinuclidin-3-yl)-8,9-dihydro-[1,4]diazepino[6,7,1-hi]indazol-6(7H)-one] | 77% @ 3 mg/kg | 19% | 8 nM
O=C1c2cccc3[nH]nc(c23)CN1CC12CCN(CC1)CC2 [Example 29, 4-(quinuclidin-4-ylmethyl)-3,4-dihydropyrazolo[3,4,5-de]isoquinolin-5(1H)-one] | 87% @ 3 mg/kg | 1% | 2 nM
